pIC50: −log10 of the molar value. Activity calls are given as the source filed them. No cut-off for these calls is given here.

These results are taken from ChEMBL document CHEMBL2390888, “Identification and synthesis of N-(thiophen-2-yl) benzamide derivatives as BRAF(V600E) inhibitors” (Bioorg Med Chem Lett, 2013).

Assay [1] concerns the target Serine/threonine-protein kinase B-raf (Homo sapiens, UniProt P15056, V600E). The assay is described as follows: Inhibition of BRAF V600E mutant (unknown origin) assessed as inhibition of MEK phosphorylation by ELISA. On the technique in general: ELISA stands for enzyme-linked immunosorbent assay.
Assay [2] concerns Serine/threonine-protein kinase B-raf (Homo sapiens), P15056 [V600E]. Description: Inhibition of BRAF V600E mutant (unknown origin) assessed as inhibition of MEK phosphorylation at 2 uM by ELISA relative to control.
Assay [3] shares this test system. Description: Inhibition of BRAF V600E mutant (unknown origin) assessed as inhibition of MEK phosphorylation at 1 uM by ELISA relative to control.

Serine/threonine-protein kinase B-raf (Homo sapiens), P15056 [V600E], sequence (P15056 whole entry V600E): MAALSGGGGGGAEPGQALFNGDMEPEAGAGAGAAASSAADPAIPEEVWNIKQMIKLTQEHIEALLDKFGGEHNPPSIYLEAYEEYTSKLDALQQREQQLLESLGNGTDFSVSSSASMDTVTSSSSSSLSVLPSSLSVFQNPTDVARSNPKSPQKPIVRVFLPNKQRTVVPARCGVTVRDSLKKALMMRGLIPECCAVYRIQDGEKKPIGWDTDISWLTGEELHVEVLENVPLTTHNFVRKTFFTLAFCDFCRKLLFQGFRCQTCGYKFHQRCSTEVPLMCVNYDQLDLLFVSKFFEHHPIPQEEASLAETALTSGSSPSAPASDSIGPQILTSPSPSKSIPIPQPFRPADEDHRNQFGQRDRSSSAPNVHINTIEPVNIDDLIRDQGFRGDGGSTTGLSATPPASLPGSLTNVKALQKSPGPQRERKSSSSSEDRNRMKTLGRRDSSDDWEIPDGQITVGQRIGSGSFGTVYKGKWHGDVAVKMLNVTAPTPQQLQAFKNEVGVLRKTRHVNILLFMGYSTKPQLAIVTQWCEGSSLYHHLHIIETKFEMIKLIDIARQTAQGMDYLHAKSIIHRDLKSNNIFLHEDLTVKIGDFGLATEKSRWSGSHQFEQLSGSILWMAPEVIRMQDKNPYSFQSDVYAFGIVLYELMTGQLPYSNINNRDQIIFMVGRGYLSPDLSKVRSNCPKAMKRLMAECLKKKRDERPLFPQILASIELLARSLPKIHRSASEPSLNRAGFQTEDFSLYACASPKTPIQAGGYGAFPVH
Serine/threonine-protein kinase B-raf, sequence (P15056 2-766 V600E limits assumed): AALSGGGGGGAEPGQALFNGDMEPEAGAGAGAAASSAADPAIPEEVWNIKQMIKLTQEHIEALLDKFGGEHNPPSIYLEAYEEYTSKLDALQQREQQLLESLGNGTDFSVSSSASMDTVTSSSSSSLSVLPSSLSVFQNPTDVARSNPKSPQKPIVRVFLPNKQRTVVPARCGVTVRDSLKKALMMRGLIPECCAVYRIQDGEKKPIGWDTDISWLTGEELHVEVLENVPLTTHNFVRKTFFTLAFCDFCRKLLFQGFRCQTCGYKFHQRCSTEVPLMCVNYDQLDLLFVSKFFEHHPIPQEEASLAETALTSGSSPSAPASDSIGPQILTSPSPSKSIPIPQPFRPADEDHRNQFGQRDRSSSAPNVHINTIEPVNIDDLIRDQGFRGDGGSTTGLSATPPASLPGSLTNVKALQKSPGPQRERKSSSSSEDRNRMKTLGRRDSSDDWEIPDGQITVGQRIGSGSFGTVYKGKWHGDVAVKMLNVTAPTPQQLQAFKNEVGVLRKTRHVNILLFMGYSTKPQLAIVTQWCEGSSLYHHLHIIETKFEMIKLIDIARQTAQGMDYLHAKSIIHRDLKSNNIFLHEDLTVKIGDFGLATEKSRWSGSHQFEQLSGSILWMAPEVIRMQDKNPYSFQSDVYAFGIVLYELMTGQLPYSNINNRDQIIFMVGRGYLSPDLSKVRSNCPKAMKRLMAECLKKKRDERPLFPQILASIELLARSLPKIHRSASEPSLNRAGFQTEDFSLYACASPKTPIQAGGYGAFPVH

With `CCOC(=O)c1sc(NC(=O)c2ccc(Cl)c([N+](=O)[O-])c2)c(C#N)c1C`, the pIC50 (commonly −log10 of the IC50, conventionally taken in molar units) in assay [1] is 5.67. In assay [2], the inhibition (commonly the share of the control response that was lost under treatment) stood at 51%.
As for `CCOC(=O)c1sc(NC(=O)c2ccc(C(=O)OC)cc2)c(C#N)c1C`, the inhibition in assay [2] turned out to be 54%.
Turning to `CCOC(=O)c1sc(NC(=O)c2ccccc2C)c(C#N)c1C`, the pIC50 in assay [1] was 5.70. Further, the inhibition in assay [2] is 52%.
For the compound `O=C1NC(=S)NC(=O)C1=Cc1ccc(-c2ccc(Br)cc2)o1`, in assay [1], the pIC50 is 6.33.
For the compound `Cc1c(C(=O)OC(C)C)sc(NC(=O)c2ccc(F)cc2)c1C#N`, the inhibition result in assay [2] was “inactive”.
For `CCOC(=O)c1sc(NC(=O)c2ccccc2Cl)c(C#N)c1C`, in assay [2], the inhibition entry was “inactive”.
`CCOC(=O)c1sc(NC(=O)c2ccc(Cl)c(C(F)(F)F)c2)c(C#N)c1C`: the inhibition in assay [2] amounted to 60%.
With `CCCS(=O)(=O)Nc1cc(F)c(C(=O)Nc2sc(C(=O)OCC)c(C)c2C#N)c(F)c1`, the inhibition in assay [3] is 34%.
Regarding `CCOC(=O)c1sc(NC(=O)c2cccc(C)c2)c(C#N)c1C`, the inhibition in assay [2] is 50%.
Still for that read-out and setting: the result for `CCOC(=O)c1sc(NC(=O)c2ccco2)c(C#N)c1C` reads “inactive”.
On the same count and under the same terms, in the case of `CCOC(=O)c1sc(NC(=O)c2ccccc2F)c(C#N)c1C` it was 51%.
`CCOC(=O)c1sc(NC(=O)c2ccc(F)cc2)c(C(=O)Nc2ccccc2)c1C`: the inhibition in assay [3] is 66%; in assay [2], 87%. In addition, the pIC50 in assay [1] is 6.20.
As to `CCOC(=O)c1sc(NC(=O)c2ccncc2)c(C#N)c1C`, the inhibition in assay [3] was 22%.
Consider `COC(=O)c1sc(NC(=O)c2ccccc2OC)c(C#N)c1C`, for which the inhibition entry in assay [2] is “inactive”.
On the same count and under the same terms, the result for `CCOC(=O)c1sc(NC(=O)c2cccc(C#N)c2)c(C#N)c1C` reads 40%; that for `CCOC(=O)c1sc(NC(=O)c2ccc(Br)cc2)c(C#N)c1C`, “inactive”.
For the compound `COC(=O)c1sc(NC(=O)c2cc(OC)cc(OC)c2)c(C#N)c1C`, the inhibition result in assay [2] was “inactive”.
Still for that read-out and setting: in the case of `CCOC(=O)c1sc(NC(=O)c2ccccc2I)c(C(=O)OC)c1C` it was “inactive”; in that of `CCOc1ccc(C(=O)Nc2sc(C(=O)OC(C)C)c(C)c2C#N)cc1`, “inactive”.
The same measure, in the same setting: in the case of `CCOC(=O)c1sc(NC(=O)c2cccc([N+](=O)[O-])c2)c(C#N)c1C` it was 36%.
Same read-out and setting: the result for `COC(=O)c1sc(NC(=O)c2cccc(C)c2)c(C#N)c1C` reads “inactive”; that for `CCOC(=O)c1sc(NC(=O)c2ccc(C)cc2)c(C#N)c1C`, 48%.
For the compound `CCOC(=O)c1sc(NC(=O)c2cccc(NS(C)(=O)=O)c2)c(C#N)c1C`, in assay [3], the inhibition entry is “inactive”.
For `CCOC(=O)c1sc(NC(=O)c2ccc(C(C)(C)C)cc2)c(C#N)c1C`, in assay [2], the inhibition worked out at 46%.
Same read-out and setting: in the case of `CCOC(=O)c1sc(NC(=O)c2cccc(OC)c2)c(C#N)c1C` it was 13%.
`CCOC(=O)c1sc(NC(=O)c2ccccc2NS(C)(=O)=O)c(C#N)c1C`: the inhibition entry in assay [3] was “inactive”.
`CCOC(=O)c1sc(NC(=O)c2ccc(Cl)cc2)c(C(N)=O)c1C`: the inhibition in assay [2] was 26%.
For the compound `CCOC(=O)c1sc(NC(=O)c2ccccn2)c(C#N)c1C`, in assay [3], the inhibition is 39%.
With `CCOC(=O)c1sc(NC(=O)c2ccc(OC)cc2)c(C#N)c1C`, the inhibition in assay [2] was 15%.
On to `CCOC(=O)c1sc(NC(=O)c2cccc(Cl)c2)c(C#N)c1C`, for which the inhibition in assay [2] was 57%.
Same read-out and setting: in the case of `CCOC(=O)c1sc(NC(=O)c2ccccc2OC)c(C#N)c1C` it was 42%.
For the compound `CCOC(=O)c1sc(NC(=O)c2cc(OC)cc(OC)c2)c(C#N)c1C`, the inhibition in assay [3] worked out at 60%; in assay [2], 85%. Also, in assay [1], the pIC50 was 6.11.
For `Cc1c(C(=O)OC(C)C)sc(NC(=O)c2ccc(Cl)c(Cl)c2)c1C#N`, the inhibition in assay [2] stood at 42%.
The same measure, in the same setting: the result for `CCOC(=O)c1sc(NC(=O)c2ccc(N3CCN(C)CC3)cc2)c(C#N)c1C` reads “inactive”.
Take `CCOC(=O)c1sc(NC(=O)c2ccc(Cl)nc2)c(C#N)c1C`: the inhibition in assay [3] came to 10%.
On to `CCOC(=O)c1sc(NC(=O)c2ccc(Cl)c(F)c2)c(C#N)c1C`, for which the inhibition in assay [2] was 59%.
Turning to `CCOC(=O)c1sc(NC(=O)c2ccc(NS(C)(=O)=O)cc2)c(C#N)c1C`, in assay [3], the inhibition result is “inactive”.
Consider `CCOC(=O)c1sc(NC(=O)c2ccc(NC(C)=O)cc2)c(C#N)c1C`, for which, in assay [3], the inhibition result was “inactive”.
In the case of `CCOC(=O)c1sc(NC(=O)c2ccccc2F)c(C(N)=O)c1C`, the inhibition result in assay [2] is “inactive”.
With `CCOC(=O)c1sc(NC(=O)c2cccc(NC(C)=O)c2)c(C#N)c1C`, the inhibition in assay [3] amounted to 17%.
Consider `CCOC(=O)c1sc(NC(=O)c2ccc(Cl)c(Cl)c2)c(C#N)c1C`, for which, in assay [2], the inhibition was 36%.
Same read-out and setting: in the case of `CCOC(=O)c1sc(NC(=O)c2ccc(C)c(OC)c2)c(C#N)c1C` it was “inactive”.
For `CCOC(=O)c1sc(NC(=O)c2cccnc2)c(C#N)c1C`, the inhibition in assay [3] was 20%.
For `CCOC(=O)c1sc(NC(=O)c2ccc(Cl)cc2)c(C#N)c1C`, the inhibition in assay [2] is 60%.
In the case of `CCOC(=O)c1sc(NC(=O)c2ccccc2)c(C(=O)OCC)c1C`, the inhibition entry in assay [2] was “inactive”.
The same measure, in the same setting: in the case of `CCOC(=O)c1sc(NC(=O)c2ccc(OC)c(OC)c2)c(C#N)c1C` it was 32%.
Turning to `CCOC(=O)c1sc(NC(=O)c2ccc(OCC)cc2)c(C#N)c1C`, in assay [1], the pIC50 is 5.94. Further, the inhibition in assay [2] worked out at 69%.
As to `CCCOC(=O)c1c(NC(=O)c2ccccc2F)sc(C(=O)OCC)c1C`, the inhibition result in assay [2] is “inactive”.
